Source: patent US4308210A, “Nanaomycin B and therapeutic compositions containing same” (The Kitasato Institute, priority 1976, dated 1981)
Values after ≈ are worked out from the molar mass of the structure shown. “Also recorded” adds a separate entry of the source.

Tests used:
[1] = test system: Gram-positive bacteria such as, for example Staphylococcus aureus; test: Growth inhibition of Gram-positive bacteria (text summary of Table 1); assay type: cell-based
[2] = test system: Trichophyton ferrugineum; test: Antimicrobial spectrum, MIC, potato agar; assay type: cell-based; settings: Microsporum ferrugineum, 96 h; potato agar (pH 6.4, 4 days, 27° C.)
[3] = test system: Shigella flexneri; test: Antimicrobial spectrum, MIC, nutrient agar; assay type: cell-based; settings: 48 h, nutrient agar (pH 7.0, 2 days, 37° C.)
Description: (§1) Medium N nutrient agar (pH 7.0, 2 days, 37° C.)
(§2) MIC Minimal inhibitory concentration

[4] = test system: Salmonella typhimurium; test: Antimicrobial spectrum, MIC, nutrient agar; assay type: cell-based; settings: Salmonella enterica, 48 h, nutrient agar (pH 7.0, 2 days, 37° C.)
Description: as §1, §2

[5] = test system: Mycobacterium smegmatis; test: Antimicrobial spectrum, MIC, nutrient agar; assay type: cell-based; settings: Mycolicibacterium smegmatis, 48 h; nutrient agar (pH 7.0, 2 days, 37° C.)
Description: as §1, §2

[6] = test system: Klebsiella pneumoniae PCI 602; test: Antimicrobial spectrum, MIC, nutrient agar; assay type: cell-based; settings: PCI602, 48 h, nutrient agar (pH 7.0, 2 days, 37° C.)
Description: as §1, §2

[7] = test system: Escherichia coli NIHJ; test: Antimicrobial spectrum, MIC, nutrient agar; assay type: cell-based; settings: 48 h, nutrient agar (pH 7.0, 2 days, 37° C.)
Description: as §1, §2

[8] = Acute toxicity, LD50; settings: in vivo, ip; intra-penetrial injection into mouse
Text: Accordingly, it can be said that nanaomycin B represents a new antibiotic which may be used as a medicament for human beings and animals.

[9] = test system: mycoplasma; test: Antimycoplasma activity, paper disc method; assay type: cell-based
Description: Inhibitory zone is assayed by paper disc method (Eiken PPLO agar, pH 7.8,

[10] = test system: Aspergillus fumigatus IAM 2612; test: Antimicrobial spectrum, MIC, potato agar; assay type: cell-based; settings: IAM2612, 96 h, potato agar (pH 6.4, 4 days, 27° C.)
[11] = test system: Trichophyton mentagrophytes; test: Antimicrobial spectrum, MIC, potato agar; assay type: cell-based; settings: 96 h, potato agar (pH 6.4, 4 days, 27° C.)
[12] = test system: Staphylococcus aureus FDA 209P; test: Antimicrobial spectrum, MIC, nutrient agar; assay type: cell-based; settings: FDA209P, 48 h, nutrient agar (pH 7.0, 2 days, 37° C.)
[13] = test system: Piricularia oryzae; test: microbe, parasite or virus in culture; assay type: cell-based; settings: 96 h, pH 6.4
[14] = test system: Sarcina lutea PCI 1001; test: Antimicrobial spectrum, MIC, nutrient agar; assay type: cell-based; settings: Micrococcus luteus, PCI1001, 48 h; nutrient agar (pH 7.0, 2 days, 37° C.)
[15] = Conversion of nanaomycin B into nanaomycin A depending on pH; assay type: physicochemical
Description: Nanaomycin B (200 mg) is dissolved in 60 ml of 0.1 N sodium hydroxide and the solution is allowed to stand for 10 minutes. After adjusting to pH 2.0 with 6 N hydrochloric acid, the product is extracted with ethyl acetate. The extract is evaporated and orange yellow needles are obtained from an ethanol solution of the product. The compound is identified as nanaomycin A by the melting point, IR spectrum and thin-layer chromatography.

[16] = test system: various fungi of some species belonging to the genus Trichophyton; test: Growth inhibition of fungi of the genus Trichophyton (text summary of Table 1); assay type: cell-based
[17] = test system: Mycoplasma gallinarum; test: Antimicrobial spectrum, MIC, PPLO agar; assay type: cell-based; settings: Mycoplasmopsis gallinarum, 192 h, Hokken PPLO agar (pH 7.8, 8 days, 37° C.)
Description: (§3) H Hokken PPLO agar (pH 7.8, 8 days, 37° C.)
as §2

[18] = test system: Mycoplasma iners; test: Antimicrobial spectrum, MIC, PPLO agar; assay type: cell-based; settings: Mycoplasmopsis iners, 192 h; Hokken PPLO agar (pH 7.8, 8 days, 37° C.)
Description: as §3, §2

[19] = test system: Candida albicans; test: Antimicrobial spectrum, MIC, potato agar; assay type: cell-based; settings: 96 h, potato agar (pH 6.4, 4 days, 27° C.)
[20] = test system: Tricophyton metagrophytes; test: Treatment of dermatomycosis at the back of guinea pigs; assay type: in vivo; settings: 0.01-1% solution in propylene glycol-ethanol (3:1, v/v), once daily for 8 days
[21] = test system: Trichophyton interdigitale; test: Antimicrobial spectrum, MIC, potato agar; assay type: cell-based; settings: 96 h, potato agar (pH 6.4, 4 days, 27° C.)
[22] = test system: Escherichia coli NIHJ (JC-2); test: Antimicrobial spectrum, MIC, nutrient agar; assay type: cell-based; settings: 48 h, nutrient agar (pH 7.0, 2 days, 37° C.)
[23] = test system: Trichophyton rubrum; test: Antimicrobial spectrum, MIC, potato agar; assay type: cell-based; settings: 96 h, potato agar (pH 6.4, 4 days, 27° C.)
[24] = test system: Trichophyton purpureum; test: Antimicrobial spectrum, MIC, potato agar; assay type: cell-based; settings: 96 h, potato agar (pH 6.4, 4 days, 27° C.)
[25] = test system: Staphylococcus aureus FDA 209P (JC-1); test: Antimicrobial spectrum, MIC, nutrient agar; assay type: cell-based; settings: FDA209P, 48 h, nutrient agar (pH 7.0, 2 days, 37° C.)
[26] = test system: Trichophyton roseum; test: Antimicrobial spectrum, MIC, potato agar; assay type: cell-based; settings: 96 h, potato agar (pH 6.4, 4 days, 27° C.)
[27] = test system: Xanthomonas oryzae N-5824; test: microbe, parasite or virus in culture; assay type: cell-based; settings: N5824, 48 h, pH 7
[28] = test system: mycoplasma; test: Activity against mycoplasma; assay type: cell-based; settings: in words
Description: as §3
(§4) E Eiken PPLO agar (pH 7.8, 8 days, 37° C.)
as §2

[29] = test system: Aspergillus niger ATCC 6275; test: Antimicrobial spectrum, MIC, potato agar; assay type: cell-based; settings: ATCC6275, 96 h, potato agar (pH 6.4, 4 days, 27° C.)
Description: (§5) P potato agar (pH 6.4, 4 days, 27° C.)
as §2

[30] = test system: Saccharomyces sake; test: Antimicrobial spectrum, MIC, potato agar; assay type: cell-based; settings: 96 h, potato agar (pH 6.4, 4 days, 27° C.)
Description: as §5, §2

[31] = test system: Microsporum gypseum 704; test: Antimicrobial spectrum, MIC, potato agar; assay type: cell-based; settings: Nannizzia gypsea, 704, 96 h; potato agar (pH 6.4, 4 days, 27° C.)
Description: as §5, §2

[32] = test system: Mycoplasma pneumonia; test: Antimicrobial spectrum, MIC, PPLO agar; assay type: cell-based; settings: 192 h, Eiken PPLO agar (pH 7.8, 8 days, 37° C.)
Description: as §4, §2

[33] = test system: Mycoplasma gallisepticum; test: Growth inhibition of Mycoplasma gallisepticum (text summary of Table 1); assay type: cell-based; settings: Mycoplasmoides gallisepticum, 192 h, read-out: growth inhibited at a concentration
Description: as §3, §4, §2

[34] = test system: Trichophyton pedis 804; test: Antimicrobial spectrum, MIC, potato agar; assay type: cell-based; settings: Trichophyton pedis, 804, 96 h; potato agar (pH 6.4, 4 days, 27° C.)

For `CC1OC(CC(=O)O)CC2C(=O)c3cccc(O)c3C(=O)C12O` (stereo not drawn) [Nanaomycin B], the MIC ([1]; Staphylococcus aureus, summary of Table 1, read-out: growth inhibited at a concentration) was 2 to 8 µg/mL (≈ 6.24 to 25 µM), the “activity on Gram-positive bacteria” value ([1]; in words) was “active” and the MIC [2] was 12.5 µg/mL (≈ 39 µM). The MIC [3] was 62.5 µg/mL (≈ 195 µM), the MIC [4] was 62.5 µg/mL (≈ 195 µM) and the MIC [5] was 125 µg/mL (≈ 390 µM). For the same compound, the MIC [6] was 31.3 µg/mL (≈ 97.7 µM), the MIC [7] was 15.6 µg/mL (≈ 48.7 µM) and the LD50 [8] was 169 mg/kg. The zone of inhibition at 10 µg/mL ([9]; Mycoplasma, 24 h, 10 μg/ml, Eiken PPLO agar, pH 7.8, 37° C., 1 day, read-out: Inhibitory Zone) was 22.7 mm, the zone of inhibition at 100 µg/mL ([9]; Mycoplasma, 24 h, 100 μg/ml, Eiken PPLO agar, pH 7.8, 37° C., 1 day, read-out: Inhibitory Zone) was 32.6 mm and the “antimycoplasma activity compared with ethylkalafunginate and deoxyfrenolicin” value ([9]; in words) was “superior”. For the same compound, the MIC [10] was greater than 100 µg/mL, the MIC [11] was 25 µg/mL (≈ 78.1 µM) and the MIC [12] was 3.9 µg/mL (≈ 12.2 µM). For the same compound, the MIC [13] was 15.6 µg/mL (≈ 48.7 µM), the MIC [14] was 2 µg/mL (≈ 6.24 µM) and the “conversion into nanaomycin A in an acidic or neutral condition” value ([15]; acidic or neutral condition) was “gradually converted”. For the same compound, the “conversion into nanaomycin A in an alkaline condition” value ([15]; alkaline condition) was “easily converted into nanaomycin A”, the MIC ([16]; Trichophyton, 96 h, summary of Table 1, read-out: growth inhibited at a concentration) was no more than 25 µg/mL and the activity on trycophyton ([16]; in words) was “active”. The MIC [17] was 3.12 µg/mL (≈ 9.74 µM), the MIC [18] was 3.12 µg/mL (≈ 9.74 µM) and the MIC [19] was 31.2 µg/mL (≈ 97.4 µM). For the same compound, the “therapeutic effect on erythema and scales” value [20] was “excellent therapeutic effect”, the MIC [21] was 12.5 µg/mL (≈ 39 µM) and the MIC [22] was 500 µg/mL (≈ 1560 µM). The MIC [23] was 3.1 µg/mL (≈ 9.68 µM), the MIC [24] was 25 µg/mL (≈ 78.1 µM) and the MIC [25] was 2 µg/mL (≈ 6.24 µM). For the same compound, the MIC [26] was 12.5 µg/mL (≈ 39 µM), the MIC [27] was 125 µg/mL (≈ 390 µM) and the activity against mycoplasma [28] was “high activity; also recorded: especially strong activity”. The MIC [29] was 62.5 µg/mL (≈ 195 µM), the MIC [30] was 62.5 µg/mL (≈ 195 µM) and the MIC [31] was 12.5 µg/mL (≈ 39 µM). It also gave an MIC [32] of 0.05 µg/mL (≈ 0.156 µM), an MIC [33] of no more than 0.1 µg/mL and an MIC [34] of 3.1 µg/mL (≈ 9.68 µM).
